In one experiment the target is T1, AXL (Homo sapiens, UniProt P30530).
T1 sequence (P30530 26-894): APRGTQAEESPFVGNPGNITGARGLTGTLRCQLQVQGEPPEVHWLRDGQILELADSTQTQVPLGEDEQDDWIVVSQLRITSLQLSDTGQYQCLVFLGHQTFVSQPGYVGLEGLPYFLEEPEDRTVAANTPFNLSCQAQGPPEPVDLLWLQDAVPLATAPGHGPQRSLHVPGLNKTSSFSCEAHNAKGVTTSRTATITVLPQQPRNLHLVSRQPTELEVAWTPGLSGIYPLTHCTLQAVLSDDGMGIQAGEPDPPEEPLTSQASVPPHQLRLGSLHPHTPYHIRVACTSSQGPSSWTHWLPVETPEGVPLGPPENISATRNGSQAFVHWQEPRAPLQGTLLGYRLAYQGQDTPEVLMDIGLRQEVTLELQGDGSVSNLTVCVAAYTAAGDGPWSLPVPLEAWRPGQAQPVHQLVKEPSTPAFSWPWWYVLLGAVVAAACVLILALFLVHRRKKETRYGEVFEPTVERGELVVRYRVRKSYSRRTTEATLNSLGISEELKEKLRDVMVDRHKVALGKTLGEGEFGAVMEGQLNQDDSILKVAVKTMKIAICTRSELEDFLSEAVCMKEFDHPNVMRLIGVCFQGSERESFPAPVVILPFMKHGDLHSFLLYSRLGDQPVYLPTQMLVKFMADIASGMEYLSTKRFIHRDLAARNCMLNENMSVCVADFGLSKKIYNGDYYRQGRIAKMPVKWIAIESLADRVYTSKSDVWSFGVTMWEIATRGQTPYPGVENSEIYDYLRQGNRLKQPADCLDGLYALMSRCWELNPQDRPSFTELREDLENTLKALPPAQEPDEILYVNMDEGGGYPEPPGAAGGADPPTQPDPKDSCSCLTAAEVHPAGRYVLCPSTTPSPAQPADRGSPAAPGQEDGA
Briefly: TR-FRET kinase activity assay, AXL. Type of experiment: biochemical. Conditions: ATP at Km, 60 minutes. The method in brief:
(§1)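 TR-FRET signal from Eu-labeled phospho-site antibody bound to tyrosine-phosphorylated fluorescent peptide; inhibition lowers signal, giving IC50. Reactions: 50 mM HEPES pH 7.5, 10 mM MgCl2, 1 mM EGTA, 0.01% Brij 35, 1 mM DTT, ATP at Km per enzyme, 60 min, RT.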

The target in the next experiment is T2, TYRO3 (Homo sapiens, UniProt Q06418).
T2 sequence (Q06418 41-890): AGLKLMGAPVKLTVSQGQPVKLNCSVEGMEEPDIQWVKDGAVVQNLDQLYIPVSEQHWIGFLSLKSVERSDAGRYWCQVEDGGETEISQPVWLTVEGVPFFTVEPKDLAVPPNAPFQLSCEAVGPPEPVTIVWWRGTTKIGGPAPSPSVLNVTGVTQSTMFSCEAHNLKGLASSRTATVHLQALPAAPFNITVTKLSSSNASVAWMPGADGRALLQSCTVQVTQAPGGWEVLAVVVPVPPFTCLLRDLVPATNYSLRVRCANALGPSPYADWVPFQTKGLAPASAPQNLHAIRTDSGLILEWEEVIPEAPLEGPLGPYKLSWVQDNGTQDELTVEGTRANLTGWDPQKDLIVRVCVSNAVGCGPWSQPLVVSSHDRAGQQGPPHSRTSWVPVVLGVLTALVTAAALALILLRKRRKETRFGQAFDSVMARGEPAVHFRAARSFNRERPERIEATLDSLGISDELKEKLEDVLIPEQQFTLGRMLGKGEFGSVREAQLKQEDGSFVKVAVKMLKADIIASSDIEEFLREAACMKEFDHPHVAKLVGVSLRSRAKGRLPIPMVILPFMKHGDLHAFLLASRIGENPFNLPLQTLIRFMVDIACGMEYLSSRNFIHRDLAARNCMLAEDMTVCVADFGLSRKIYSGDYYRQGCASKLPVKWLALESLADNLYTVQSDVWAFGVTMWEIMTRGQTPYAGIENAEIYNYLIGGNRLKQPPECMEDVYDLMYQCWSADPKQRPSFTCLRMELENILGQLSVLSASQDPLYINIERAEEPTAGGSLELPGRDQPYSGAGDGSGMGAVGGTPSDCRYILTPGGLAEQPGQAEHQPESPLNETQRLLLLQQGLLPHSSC
Briefly: TR-FRET kinase activity assay, TYRO3. In kind it is biochemical. Conditions: ATP at Km, 60 minutes. The method in brief: as §1
(In general: TR-FRET usually uses a lanthanide donor and a delayed reading to cut background.)

Counter-ions that a name gives are not always drawn.

In the case of `CCCCNc1ncc2c(=O)n(-c3ccc(CN4CCOCC4)cc3)cc([C@H]3CC[C@H](O)CC3)c2n1` [Compound 101], the half-inhibitory concentration (IC50) against AXL and on TYRO3 was 100 to 1000 nM each time.
Consider `CCCCNc1ncc2c(NCc3ccc(F)cc3)ncc([C@H]3CC[C@H](O)CC3)c2n1` [Compound 103, 4-[2-(butylamino)-5-[(4-fluorophenyl)methylamino]pyrido[4,3-d]pyrimidin-8-yl]cyclohexanol hydrochloride], for which the results for the concentration for half-maximal inhibition (IC50) against AXL and on TYRO3 were 100 to 1000 nM and no more than 100 nM, respectively.
The corresponding values for `CCCCNc1ncc2c(OC3CCOCC3)ncc([C@H]3CC[C@H](O)CC3)c2n1` [Compound 104, (1r,4r)-4-(2-(butylamino)-5-((tetrahydro-2H-pyran-4-yl)oxy)pyrido[4,3-d]pyrimidin-8-yl)cyclohexanol] are no more than 100 nM and no more than 100 nM.
The corresponding values for `CCCCNc1ncc2c(OC)ncc([C@H]3CC[C@H](O)CC3)c2n1` [Compound 127] are no more than 100 nM and no more than 100 nM.
Consider `CCCC(C)Nc1ncc2c(=O)n(C3CCN(C(C)=O)CC3)cc([C@H]3CC[C@H](O)CC3)c2n1` (stereo partly shown) [Compound 128, 6-(1-acetylpiperidin-4-yl)-8-((1r,4r)-4-hydroxycyclohexyl)-2-(pentan-2-ylamino)pyrido[4,3-d]pyrimidin-5(6H)-one hydrochloride], for which the 50% inhibitory concentration (IC50) (in general, the concentration that gives 50% inhibition) on AXL was 100 to 1000 nM; against TYRO3, no more than 100 nM.
For the compound `CCCCNc1ncc2c(OC3CCNCC3)ncc([C@H]3CC[C@H](O)CC3)c2n1` [Compound 129], the half-maximal inhibitory concentration (IC50) against AXL and against TYRO3 was no more than 100 nM in each case.
On to `CCCCC[C@H](C)Nc1ncc2c(OC3CCNCC3)ncc([C@H]3CC[C@H](O)CC3)c2n1` [Compound 130], for which the IC50 at AXL and at TYRO3 was no more than 100 nM each time.
As for `CCCCNc1ncc2c(OC3CCN(C)CC3)ncc([C@H]3CC[C@H](O)CC3)c2n1` [Compound 131], the IC50 against AXL and on TYRO3 was no more than 100 nM each time.
Turning to `O[C@H]1CC[C@H](c2cnc(OC3CCOCC3)c3cnc(NC4CCCC4)nc32)CC1` [Compound 132], the IC50 against AXL and against TYRO3 was no more than 100 nM in each case.
Turning to `CCCC(C)Nc1ncc2c(OC3CCOCC3)ncc([C@H]3CC[C@H](O)CC3)c2n1` (stereo partly shown) [Compound 133], the IC50 on AXL is 100 to 1000 nM; at TYRO3 it was no more than 100 nM.
The corresponding values for `O[C@H]1CC[C@H](c2cnc(OC3CCOCC3)c3cnc(Nc4ccc(Cl)cc4)nc32)CC1` [Compound 134, (1r,4r)-4-(2-((4-chlorophenyl)amino)-5-((tetrahydro-2H-pyran-4-yl)oxy)pyrido[4,3-d]pyrimidin-8-yl)cyclohexan-1-ol] are no more than 100 nM and no more than 100 nM.
Consider `CC(C)Nc1ncc2c(OC3CCNCC3)ncc([C@H]3CC[C@H](O)CC3)c2n1` [Compound 135], for which the concentration for half-maximal inhibition (IC50) against AXL and on TYRO3 was no more than 100 nM each time.
As for `O[C@H]1CC[C@H](c2cnc(OC3CCNCC3)c3cnc(N[C@H]4CCOC4)nc32)CC1` [Compound 136], the IC50 is 100 to 1000 nM against AXL and no more than 100 nM against TYRO3.
The corresponding values for `C[C@@H](CO)Nc1ncc2c(OC3CCOCC3)ncc([C@H]3CC[C@H](O)CC3)c2n1` [Compound 137] are 1000 to 10000 nM and 100 to 1000 nM.
Take `CCCC(C)Nc1ncc2c(=O)n(C3CCN(S(C)(=O)=O)CC3)cc([C@H]3CC[C@@H](O)CC3)c2n1` (stereo partly shown) [Compound 138]: the half-inhibitory concentration (IC50) against AXL was 100 to 1000 nM; against TYRO3, no more than 100 nM.
The corresponding values for `CCCC(C)Nc1ncc2c(O[C@H]3CC[C@H](O)CC3)ncc([C@H]3CC[C@H](O)CC3)c2n1` (stereo partly shown) [Compound 139] are 100 to 1000 nM and no more than 100 nM.
For `CCC(C)Nc1ncc2c(OC3CCOCC3)ncc([C@H]3CC[C@H](O)CC3)c2n1` (stereo partly shown) [Compound 140], the half-maximal inhibitory concentration (IC50) against AXL was 100 to 1000 nM; on TYRO3, no more than 100 nM.
In the case of `CCCC(C)Nc1ncc2c(OC3CCS(=O)(=O)CC3)ncc([C@H]3CC[C@H](O)CC3)c2n1` (stereo partly shown) [Compound 141], the IC50 against AXL is 100 to 1000 nM; at TYRO3, no more than 100 nM.
The corresponding values for `CCCC(C)Nc1ncc2c(OC3CCS(=O)(=O)CC3)ncc([C@H]3CC[C@@H](O)CC3)c2n1` (stereo partly shown) [Compound 142] are 1000 to 10000 nM and 100 to 1000 nM.
As to `CCCC(C)Nc1ncc2c(OC3CCN(S(C)(=O)=O)CC3)ncc([C@H]3CC[C@H](O)CC3)c2n1` (stereo partly shown) [Compound 143], the IC50 against AXL was 100 to 1000 nM; on TYRO3, no more than 100 nM.
For `CC1(C)CC(Nc2ncc3c(OC4CCOCC4)ncc([C@H]4CC[C@H](O)CC4)c3n2)C1` [Compound 144] the same measures were 100 to 1000 nM and 100 to 1000 nM.
For `COC[C@@H](C)Nc1ncc2c(OC3CCOCC3)ncc([C@H]3CC[C@H](O)CC3)c2n1` [Compound 145] the same measures were 1000 to 10000 nM and no more than 100 nM.
In the case of `CCCC(C)Nc1ncc2c(N(C)C3CCN(C)CC3)ncc([C@H]3CC[C@H](O)CC3)c2n1` (stereo partly shown) [Compound 146], the IC50 at AXL is 1000 to 10000 nM; at TYRO3, no more than 100 nM.
For the compound `CCCC(C)Nc1ncc2c(OC3CCC(OC)CC3)ncc([C@H]3CC[C@H](O)CC3)c2n1` (stereo partly shown) [Compound 147], the IC50 against AXL is 100 to 1000 nM; against TYRO3, no more than 100 nM.
The corresponding values for `CCCC(C)Nc1ncc2c(O[C@H]3CC[C@@H](O)CC3)ncc([C@H]3CC[C@H](O)CC3)c2n1` (stereo partly shown) [Compound 148] are 100 to 1000 nM and no more than 100 nM.
Take `CCCC(C)Nc1ncc2c(=O)n(C3CCN(CC(=O)N(C)C)CC3)cc([C@H]3CC[C@@H](O)CC3)c2n1` (stereo partly shown) [Compound 149]: the IC50 on AXL is 100 to 1000 nM; at TYRO3, no more than 100 nM.
In the case of `CCCC(C)Nc1ncc2c(=O)n(C3CCN(CCOC)CC3)cc([C@H]3CC[C@H](O)CC3)c2n1` (stereo partly shown) [Compound 150], the concentration for half-maximal inhibition (IC50) against AXL is 100 to 1000 nM; at TYRO3 it was no more than 100 nM.
The corresponding values for `CCCC(C)Nc1ncc2c(=O)n(C3CCN(CCC(=O)N(C)C)CC3)cc([C@H]3CC[C@H](O)CC3)c2n1` (stereo partly shown) [Compound 151] are 100 to 1000 nM and no more than 100 nM.
The corresponding values for `CCC[C@@H](C)Nc1ncc2c(=O)n(C3CCNCC3)cc([C@H]3CC[C@H](O)CC3)c2n1` [Compound 152] are 1000 to 10000 nM and no more than 100 nM.
For `CCCC(C)Nc1ncc2c(OC3CCC(F)(F)CC3)ncc([C@H]3CC[C@H](O)CC3)c2n1` (stereo partly shown) [Compound 153] the same measures were 1000 to 10000 nM and 100 to 1000 nM.
For the compound `CCCC(C)Nc1ncc2c(NC3CCN(C)CC3)ncc([C@H]3CC[C@H](O)CC3)c2n1` (stereo partly shown) [Compound 154], the IC50 against AXL and against TYRO3 was no more than 100 nM each time.
Consider `CCCC(C)Nc1ncc2c(N3CCC(NC)CC3)ncc([C@H]3CC[C@H](O)CC3)c2n1` (stereo partly shown) [Compound 155], for which the values for the concentration for half-maximal inhibition (IC50) at AXL and against TYRO3 were 100 to 1000 nM and no more than 100 nM, respectively.
Consider `CCCC(C)Nc1ncc2c(N3CC[C@@H](N(C)C)C3)ncc([C@H]3CC[C@H](O)CC3)c2n1` (stereo partly shown) [Compound 156], for which the results for the IC50 against AXL and against TYRO3 were 100 to 1000 nM and no more than 100 nM, respectively.
For `CCCC(C)Nc1ncc2c(OC[C@H]3CC[C@@H](O)CC3)ncc([C@H]3CC[C@H](O)CC3)c2n1` (stereo partly shown) [Compound 157] the same measures were 100 to 1000 nM and no more than 100 nM.
Consider `CCCC(C)Nc1ncc2c(NC3CCNCC3)ncc([C@H]3CC[C@H](O)CC3)c2n1` (stereo partly shown) [Compound 158], for which the IC50 at AXL and on TYRO3 was no more than 100 nM throughout.

(Values after patent publication US20200291018A1, “TAM KINASE INHIBITORS” (SYROS PHARMACEUTICALS, INC., priority 2017, published 2020).)
